Here are results for nine compounds from patent publication EP1029246B1, “A METHOD AND DEVICE FOR PREVENTING IMMUNOGLOBULIN DEGRADATION IN EXTERNAL SECRETIONS” (priority 1997, dated 1999).

In one assay the test system is anti-Borrelia IgM serum. Kind of assay: Protection of anti-Borrelia IgM in spiked feces by various substances (ELISA), Example 4. The settings on record: 33°C for 3 hours; for ELISA OD: concentrations of all cations 0.219M, dilution in ELISA 1/3000. Here is the method: (§1) 25 µl of a high titred anti-Borrelia IgM serum obtained from a patient with acute Borreliosis was added to 5 tubes, each containing 50 mg of a fecal sample from a healthy volunteer. Following vortexing for 30 seconds, 500 µl of the normotonic (319 mOsm/L) solutions (i) 1 X PBS (7,7 mM Na2HPO4, 2,99 mM NaH2PO4, 145 mM NaCl), (ii) 64.5 mM zinc gluconate, (iii) 64,5 mM MgCl2, (iv) 64.5 mM magnesium gluconate or (v) 96.9 mM NaCl, the latter four all dissolved in 1/3 X PBS to obtain the same osmolarity as 1 X PBS, i.e. 319 mOsm/L was added to each of the five tubes. Following vortexing for 30 seconds, the tubes were subsequently incubated at 30°C for 5 hours. Thereafter, 250 µl of a protease inhibitor cocktail (see above) was added to each of the 5 tubes. Solid matter was suspended by vortexing for another 30 seconds followed by centrifugation at 13,000 x g for 10 min. The supernatants were stored at -70°C prior to examination or immediately tested in a commercially available anti-Borrelia IgM ELISA. For the purpose of comparison, 25 µl of the anti-Borrelia IgM serum was run in the immunoassay.
50 milligrams of feces and 25 µl of anti-Borrelia IgM serum were incubated at 33°C for 3 hours with each of the substances described in table 2. Following incubation, the fecal samples were processed and the extracts were obtained as described in example 3.

For assay [1], the system named is anti-Borrelia IgM antibodies. Put plainly: Protection of anti-Borrelia IgM in spiked feces by equimolar zinc compounds (ELISA), Example 5. The settings on record: 37°C for 4 hours, zinc concentration = 0.219M; for ELISA OD: dilution in ELISA 1/1450. Here is the method: 50 milligrams of feces and 25 µl of anti-Borrelia IgM serum was incubated at 37°C for 4 hours with equimolar concentrations of zinc gluconate, zinc chloride and zinc acetate (zinc concentration = 0.219M).

Assay [2] relates to anti-Borrelia IgM antibodies. Kind of assay: Long term stability of IgM antibodies extracted from spiked fecal samples, re-analysis in anti-Borrelia IgM ELISA, Example 2. To be noted: extract stored at -70°C for 4 months, incubated 30°C for 5 hours. Here is the method:
(§2) 50 µl of a high titer anti-Borrelia IgM serum obtained from a patient with acute Borreliosis was added to 3 tubes each containing 50 mg of a fecal sample from a healthy volunteer. Following vortexing for 30 seconds, the tubes were incubated at 30°C for 5 hours in the presence or absence of 150 µl of 10% zinc gluconate (Gluconal® ZN-G; Glucona B.V., Veendam, The Netherlands). Following incubation, 150 µl of a protease inhibitor cocktail (0.2 mM 4-{2-aminoethyl}benzenesulfonylfluoride [Calbiochem], 1 µg of aprotinin [Sigma] per ml, 10 µM leupeptin [Sigma], and 3.25 µM bestatin [Boehringer Mannheim, Indianapolis, USA]) was added. After vortexing, the tubes were centrifuged at 13,000 x g for 10 min. The supernatants were stored at -70°C or immediately tested in a commercially available anti-Borrelia IgM ELISA (IDELA™ Borrelia burgdorferi IgM, DAKO Diagnostics Ltd., Cambridgeshire, UK). For the purpose of comparison, 50 µl of anti-Borrelia IgM serum was run in the immunoassay.
The fecal extracts described in Example 1 were stored at -70°C for 4 months, and then re-analyzed in the anti-Borrelia IgM ELISA to check the long term stability of the antibodies stored in the presence or absence of 10% zinc gluconate.

The subject of assay [3] is anti-Borrelia IgM antibodies. Kind of assay: Inhibition of degradation of anti-Borrelia IgM in spiked fecal samples (anti-Borrelia IgM ELISA), Example 1. The settings on record: for Initial ELISA, O.D.: feces plus anti-Borrelia IgM serum plus 10% zinc gluconate, 30°C for 5 hours. Here is the method: In example numbers 1-5, fecal samples are spiked with a single analyte of interest, i.e. a predetermined amount of a high titered anti-Borrelia IgM serum is added to fecal samples in order to determine the extent to which the protective solution of the present invention prevents the degradation of the particular analyte added.
as §2
The results are given in figure 4, Y-axis: ELISA results (O.D. value); X-axis: F+S; feces plus anti-Borrelia IgM serum incubated at 30°C or on ice for 5 hours, F+S+ZG; feces plus anti-Borrelia IgM serum plus zinc gluconate incubated at 30°C for 5 hours. […]

The subject of another assay is anti-Borrelia IgM. Kind of assay: Effect of normotonic (319 mOsm/L) solutions on degradation of anti-Borrelia IgM in spiked feces, Example 3. Here is the method:
as §1, with “immunoassay. […]” for “immunoassay.”

As to `N=C(NCCCCCCNC(=N)NC(=N)Nc1ccc(Cl)cc1)NC(=N)Nc1ccc(Cl)cc1` [Chlorhexidine gluconate], the “ELISA OD” value in the assay with anti-Borrelia IgM serum is 0.003 OD.
Same read-out and setting: as for `O=C([O-])[C@H](O)[C@@H](O)[C@H](O)[C@H](O)CO.[Na+]` [Sodium gluconate], the figure is 0.087 OD.
Consider Copper acetate, for which the “ELISA OD” value with anti-Borrelia IgM serum turned out to be 0.042 OD.
Still for that read-out and setting: as for Copper sulphate, the figure is 0.018 OD; as for Manganese chlonde, 0.184 OD; as for Sodium chloride, 0.043 OD.
Take Zinc acetate [reference compound]: the “ELISA OD” value in assay [1] is recorded as 0.281 OD.
Same read-out and setting: with Zinc chloride [reference compound] the figure was 0.011 OD.
Regarding zinc gluconate, in assay [1], the “protection of anti-Borrelia IgM antibodies from degradation (Table 3)” value is given as “significantly protects”. Further, the “ELISA OD” value in assay [1] is 0.910 OD; in the assay on anti-Borrelia IgM serum, 0.360 OD. In addition, the “capacity of the IgA molecules to bind antigen (CTB)” value with anti-CTB IgA was “preserved”. Further, the “inhibition of degradation of IgA (figure 6)” value with anti-CTB IgA is “significantly inhibit the degradation”. The “protection among the substances tested (Table 2)” value in the assay with anti-Borrelia IgM serum (cations 0.219M) is on record as “gives the best protection”. Besides, the entries for the “ELISA O.D. after 4 months” value in assay [2] (sample dilution 1/60), in assay [2] (sample dilution 1/180) and in assay [2] (sample dilution 1/540) were 2.48 O.D, 2.40 O.D and 1.75 O.D, respectively. The “inhibition of degradation of anti-Borrelia IgM antibodies (figure 4)” value in assay [3] (10% solution, fecal samples at 30°C for 5 hours) is recorded as “substantially inhibits the degradation”. Also, the “Initial ELISA, O.D.” value in assay [3] (sample dilution 1/60) was 2.59 O.D; in assay [3] (sample dilution 1/180), 2.57 O.D; in assay [3] (sample dilution 1/540) it was 2.08 O.D. In addition, the “inhibition of degradation of anti-Borrelia IgM (Figure 5)” value in the assay on anti-Borrelia IgM (64.5 mM in 1/3 X PBS, normotonic (319 mOsm/l), 30°C for 5 hours in feces) is “substantially inhibits the degradation”. Also, the “efficiency in conferring protection among the examined compounds (Figure 5)” value in the assay with anti-Borrelia IgM (compared with normotonic PBS, MgCl2, magnesium gluconate, NaCl, 30°C for 5 hours) was “the most efficient”.
